Results reported in publication doi:10.1101/836932v1 (biorxiv, 2019).
pIC50: −log10 of the molar value.

Molecular target: T1, MLLT3 (AF9) (Homo sapiens, UniProt P42568)
T1 sequence (P42568 1-138 limits assumed): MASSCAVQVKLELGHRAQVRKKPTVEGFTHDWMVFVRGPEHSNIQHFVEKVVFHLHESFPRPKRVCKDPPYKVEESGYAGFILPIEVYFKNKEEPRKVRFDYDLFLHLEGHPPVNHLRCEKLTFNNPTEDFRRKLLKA
Test: AlphaScreen
Assay type: binding

| SMILES | pIC50 |
| --- | --- |
| COc1ccc(CNC(=O)N2CCN(c3ccc(C(C)=O)cc3)CC2)cn1 [compound 1, piperazine-1-carboxamide 1] | 5.11 |
| O=C(NCc1ccc(CN2CCCC2)cc1)N1CCN(C(=O)c2cccs2)CC1 [compound 2, piperazine-1-carboxamide 2] | 4.48 |
| CCN(CC)Cc1ccc(CNC(=O)N2CCN(c3ncccn3)CC2)cc1 [compound 3, piperazine-1-carboxamide 3] | < 4.00 |
